Measured values as given in patent US20250230215A1, “IMMUNE CELLS EXPRESSING GLUCOSE TRANSPORTER 5 (GLUT5) AND COMPOSITIONS AND METHODS INCLUDING THE SAME” (Memorial Sloan-Kettering Cancer Center, priority 2021, published 2025).
In brackets after ≈: the same amount, converted by molar mass. Each block holds one compound with its values, some of them ahead of it.

Columns and labels:
[1] = Blood, tumor and liver fructose after IP injection of fructose in B16 tumor bearing mice; type: in vivo
Protocol: Further this supports that HP fructose reaches the tumor and provides a platform for imaging.
In order to determine the effect of fructose addition into GLUT5-OV T cells in vivo, the assay is optimized for delivering fructose into the tumor microenvironment. Specifically, three methods are tested, including: (i) intraperitoneal (IP) and (ii) intravenous (IV) injections of fructose, and (iii) water bottle with high-fructose corn syrup (HFCS). IP and IV injections (4 g/kg) are conducted daily and 25% HFCS in water is provided for three weeks; twice a week during this time the fructose level in circulating blood is measured and an endpoint tumor fructose measurement is taken. A B16 melanoma mouse model is utilized. Briefly, B16 cells (2×10^5) are engrafted subcutaneously into C57BL/6 mice and assayed on Day 7 post-tumor-engraftment. In a second cohort of mice, with the same conditions, co-administration of the KHKi^53 used in Example 3 is performed to block the uptake of the liver and small intestine (the predominant sites of fructose uptake and subsequent phosphorylation by KHK). As shown in Example 1, a single IP injection of fructose was piloted and both the tumors and liver were extracted after 1 hr (FIG. 12). […] Given this PK data, this dose of KHKi is explored using multiple routes of delivery. Specially, a dose of 10 mg/kg was used and administered IP at the same time as the fructose delivery. Fructose concentration is measured in the circulating blood as well as the endpoint tumor with all 3 delivery methods (n=10 mice per group, total of 80 mice) utilizing a standard kit assay. See Goncalves et al. Science 363, 1345-1349 (2019). Taken together, these experiments provide the necessary data to determine which fructose delivery method is best for the remaining experiments.
Results, potential challenges and alternative solutions: In some embodiments, high dose injections of fructose allows for a transient but substantial increase in blood as well as tumor fructose levels (>2 mM). It was found by Applicant that with a single IP injection of fructose the blood concentration can be raised to >10 mM and tumor concentration can be raised to >2 mM. The dosing schedule relative to T-cell action is further optimized. It is possible that the fructose levels of tumors can not be further elevated in vivo due to the action of the liver and gluconeogenesis. […] This is readily in the range of detection for HP MRI. It is possible that HP lactate can not be detected in tumors from fructose due to the cellularity. At the minimum, however, HP F6P can be detected, which was previously detected in tumors that overexpress GLUT5; this informs on the degree of fructose metabolism into glycolysis. […]

KHK = target: T1, KHK (Homo sapiens, UniProt P50053); assay: 13C NMR of [2-13C]F1P in HepG2 cell extract with KHKi treatment; type: cell-based; settings: treatment at 4 hr in vitro
T1 construct: endogenous in cells; host or cells: HepG2 cells
T1 sequence (P50053 1-298): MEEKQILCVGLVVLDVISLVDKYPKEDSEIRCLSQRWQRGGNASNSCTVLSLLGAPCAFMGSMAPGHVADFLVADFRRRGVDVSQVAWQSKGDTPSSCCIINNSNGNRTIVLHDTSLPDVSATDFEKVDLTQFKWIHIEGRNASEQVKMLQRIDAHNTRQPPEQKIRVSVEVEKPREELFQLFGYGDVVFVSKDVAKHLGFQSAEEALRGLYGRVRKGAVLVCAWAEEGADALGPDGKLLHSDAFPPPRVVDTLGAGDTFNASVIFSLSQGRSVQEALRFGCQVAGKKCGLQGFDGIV
From the text: FIGS. 11A-11C provide fructose converted to fructose-1-phosphate (F1P) and later to lactate in vivo measured in transformed hepatocytes (HepG2 cells) using [2-^13C] fructose. FIG. 11A provides ^13C NMR spectra of media containing [2-^13C] fructose exposed to HepG2 cells. FIG. 11B provides a quantification of fructose consumption by HepG2.
Translation of novel hyperpolarized probes into in vivo animal models represents a great technical advance in the exploration of the modulate metabolism induced by GLUT5-OV. Using the optimized probe formulation for HP fructose, the metabolic conversion of fructose is explored in vivo in the liver of wild type B6 mice, as previously shown. […] [2-^13C]F1P resonates downfield of the C2 pyranose resonance; in Example 1, this conversion was measured in transformed hepatocytes (HepG2 cells, FIG. 11) using [2-^13C] fructose. When further converted, C2 lactate is generated (resonating at 70 ppm) from fructose and this has been detected previously in vivo derived from HP glucose (Rodrigues et al. Nat Med 20, 93-97 (2014)) and pyruvate (Park et al. Magn Reson Med 75, 973-984 (2016)). All imaging studies are conducted under IACUC-approved protocol #13-12-019. Briefly, mice are imaged using a 3T Bruker MRI equipped with a dual tune ^1H/^13C volume coil. […] This is then extracted and labeled metabolites are measured by LC/MS and NMR. […]

[2] = Pharmacokinetic analysis of the KHKi in vivo; design: species or system mice; settings: mouse
PKM2 = PKM2 (Homo sapiens, UniProt P14618); settings: PKM2 activation; cited from earlier work
[3] = system: red blood cell pyruvate kinase; settings: over a broad range of PKLR genotypes; cited from earlier work
[4] = PBS, pH 7.4; cited from earlier work
[5] = Hyperpolarized lifetime and polarization of HP fructose probes; type: physicochemical
From the text: FIG. 9A provides the mechanism for transport by GLUT5 and the first step of metabolism of fructose to fructofuranose-6-phosphate by hexokinase. FIG. 9B provides a T2-weighted image of a transgenic model of prostate cancer (TRAMP) mouse with tumor only on the right side of the prostate. Metabolic images of total hyperpolarized [2-^13C] fructose resonances (FIG. 9C) and the composite 0-fructofuranose-6-phosphate and β-fructofuranose (FIG. 9D) are shown overlaid on the T2 weighted image. Resonances corresponding to the β-fructopyranose and composite p-fructofuranose-6-phosphate and p-fructofuranose are shown in the corresponding spectral array (FIG. 9E). FIGS. 9A-9E adapted from Keshari et al. J Am Chem Soc. 2009 Dec. 9; 131(48):17591-6. […] An unassigned, spurious, low signal-to-noise resonance appears at 115 ppm. FIG. 9F provides a synthetic scheme for U-^2H-[2-^13C] fructose. The C2 is annotated by an C. FIG. 9G provides representative dynamic spectra of HP [2-^13C] fructose dissolved in D2O and HP U-^2H-[2-^13C] fructose dissolved in D20. Both solutions were approximately 30 mM and spectra acquired using 5° flip angle every 3 s.
Enhancement of hyperpolarized lifetimes using D2O solvation and application to HP fructose: In previous experiments, the necessary strategies and combined methods to develop not only novel probes for HP MRI but also bolus tracing experiments to confirm biochemistry in vivo. See Salamanca-Cardona et al. Cell Metab 26, 830-841 e833 (2017). While many molecular strategies have been developed for HP MRI, they generally suffer from short lifetimes (≤10 s) making flux through pathways of interest difficult to visualize in vivo. […] See Keshari et al. J Am Chem Soc 131, 17591-17596 (2009). In recent work, It was shown by the Applicant that utilization of rapid exchange between H2O and D2O can dramatically increase the lifetimes of the HP probes by greatly reducing dipolar relaxation. See Cho et al. J Magn Reson 295, 57-62 (2018). As such, a synthesis was developed for [2-^13C,U-^2H7] fructose at gram scale (FIG. 9F) as well as a preparation to hyperpolarize it. […]

[6] = single IP injection of fructose

PKM2, sequence (P14618 whole entry): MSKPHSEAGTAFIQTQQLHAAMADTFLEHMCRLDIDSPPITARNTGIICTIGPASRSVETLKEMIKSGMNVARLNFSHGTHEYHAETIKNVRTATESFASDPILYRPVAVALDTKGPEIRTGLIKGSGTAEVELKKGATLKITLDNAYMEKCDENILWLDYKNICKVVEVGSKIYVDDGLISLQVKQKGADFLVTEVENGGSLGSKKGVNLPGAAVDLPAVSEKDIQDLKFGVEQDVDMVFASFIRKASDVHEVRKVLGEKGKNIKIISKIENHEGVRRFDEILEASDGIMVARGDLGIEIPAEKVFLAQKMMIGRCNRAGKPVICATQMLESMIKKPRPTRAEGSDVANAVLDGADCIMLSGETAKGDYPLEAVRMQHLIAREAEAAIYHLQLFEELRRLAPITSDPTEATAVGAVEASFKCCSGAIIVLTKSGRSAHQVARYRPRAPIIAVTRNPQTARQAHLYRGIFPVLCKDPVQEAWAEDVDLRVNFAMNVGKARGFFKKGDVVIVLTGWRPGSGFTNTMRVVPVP

change in F1P (KHK): decrease in F1P
Cmax ([2]; 10 mg/kg, approximate conversion): ~1 µM
Cmax ([2]; KHKi 10 mg/kg): 475 ng/mL
half-life ([2]; KHKi 10 mg/kg): 2 h
Structure (SMILES): N#Cc1c(C(F)(F)F)cc(N2CCN(CCO)CC2)nc1N1CCCC(CO)C1 (centres unmarked) [KHKi, 6-(4-(2-Hydroxyethyl)piperazin-1-yl)-2-(3-(hydroxymethyl)-piperidin-1-yl)-4-(trifluoromethyl)nicotinonitrile]
extension of blood half-life of fructose ([1]; first attempt with the KHKi): 50%
tumor fructose with KHKi ([1]; single dose of KHKi with single IP injection of fructose, tumors extracted after 1 hr): further enhanced

Structure (SMILES): Nc1cccc(S(=O)(=O)N2CCCN(S(=O)(=O)c3ccc4c(c3)OCCO4)CC2)c1 [DASA-58]
AC90 (PKM2): 680 nM

Structure (SMILES): O=C(CO)[C@@H](O)[C@H](O)[C@H](O)CO [fructose]
blood concentration of fructose [1, 6]: > 10000 µM
tumor concentration of fructose [1, 6]: > 2 mM

Structure (SMILES): O=C(c1ccc(NS(=O)(=O)c2cccc3cccnc23)cc1)N1CCN(CC2CC2)CC1 [AG 348]
effect on red blood cell pyruvate kinase [3]: increases enzymatic activity, protein stability, and ATP levels

Structure (SMILES): Cn1c2cc([S+](C)[O-])sc2c2cnn(Cc3cccc(N)c3)c(=O)c21 (centres unmarked) [TEPP-46]
aqueous solubility [4]: 79.5 µM (≈ 29.6 µg/mL)

achieved polarization [5]: greater than 10%
hyperpolarized lifetime ([5]; D2O solvation): 1.5 min
lifetime relative to previously shown ([5]; versus HP [2-13C] fructose): 6 times
Structure (SMILES): [2H]C([2H])(O)[13C](=O)[C@@]([2H])(O)[C@]([2H])(O)[C@]([2H])(O)C([2H])([2H])O [[2-^13C,U-^2H7] fructose]
